Read-outs that look alike come from different tables or passages of the source.
Key:
Type in all cases: cell-based
[1] = system: Aspergillus fumigatus ATCC204305; assay: microbe, parasite or virus in culture
Description: (§1) Compounds 1–8 were tested for antifungal activities against Aspergillus fumigatus ATCC204305 and Aspergillus niger ATCC16404 using broth microdilution antifungal susceptibility testing, according to previously published protocol. In the experiments, the RPMI-1640 medium containing 10.4 g/L of RPMI-1640 medium (R8755; Sigma, St. Louis, MO, USA), 6.7 g/L of Yeast Nitrogen Base (YNB; Becton, Dickinson and Company, Franklin Lakes, NJ, USA), 1.8% (w/v) glucose, and 40 mM HEPES (pH = 7.1) was used as culture medium. The inoculum per well for a 96-well microplate was 2 × 10^4 fresh conidia/mL (150 µL/well), which were incubated for 24 h at 37 ℃. The minimal inhibitory concentration (MIC) in the assay were performed using resazurin at 0.002% (w/v) of final concentration.

[2] = system: Aspergillus niger ATCC16404; assay: microbe, parasite or virus in culture
Description: as §1

[3] = system: small cell lung cancer cell line H1688; assay: Cytotoxicity, MTT assay; details: positive control
[4] = system: human embryonic lung fibroblast cell MRC-5; assay: Cytotoxicity, MTT assay; details: MRC-5, MTT, positive control
[5] = system: non-small cell lung cancer cell line A549; assay: Cytotoxicity, MTT assay; details: positive control
[6] = system: small cell lung cancer cell line H446; assay: Cytotoxicity, MTT assay; details: printed H466, MTT, positive control

MIC ([1]; ATCC204305, Table S1, broth microdilution, RPMI-1640 + YNB + 1.8% glucose + 40 mM HEPES pH 7.1, 2 × 10^4 conidia/mL, 24 h, 37 °C, resazurin 0.002%, read-out: MIC)	MIC ([1]; ATCC204305, one range given for A. fumigatus and A. niger together, read-out: MIC values)	MIC ([1]; ATCC204305, text of method and conclusions, unit printed as μg/mL, read-out: MICs)	MIC ([2]; ATCC16404, Table S1, broth microdilution, RPMI-1640 + YNB + 1.8% glucose + 40 mM HEPES pH 7.1, 2 × 10^4 conidia/mL, 24 h, 37 °C, resazurin 0.002%, read-out: MIC)	MIC ([2]; ATCC16404, one range given for A. fumigatus and A. niger together, read-out: MIC values)	MIC ([2]; ATCC16404, text of method and conclusions, unit printed as μg/mL, read-out: MICs)	Compound	IC50 [3]	IC50 [4]	IC50 [5]	IC50 [6]
1 µM	1 µM	1 µg/mL	1 µM	1 µM	1 µg/mL	C[C@@H]1[C@H](O)[C@@H](C)/C=C/C=C/C=C/C=C/C=C/C=C/C=C/[C@H](O[C@@H]2O[C@H](C)[C@@H](O)[C@H](N)[C@@H]2O)C[C@@H]2O[C@](O)(C[C@@H](O)C[C@@H](O)[C@H](O)CC[C@@H](O)C[C@@H](O)CC(=O)O[C@H]1C)C[C@H](O)[C@H]2C(=O)O [Amphotericin B]	–	–	–	–
–	–	–	–	–	–	N.N.[Cl][Pt][Cl] [Cisplatin]	3 µM	23.8 µM	3.8 µM	1.9 µM

— paper PMC8537450, “Cyclopeptide Derivatives from the Sponge-Derived Fungus Acremonium persicinum F10” (Marine Drugs, 2021)
